According to US20140303092A1 (CHIMERIX, INC., priority 2011, published 2014):

Assay: Study HDP-CDV-201: safety and tolerability (adverse events, laboratory abnormalities, discontinuations)
Format: in vivo, human (adult allogeneic HSCT recipients)
Procedure: Clinical Studies of HDP-CDV were performed and described in detail in the following Examples. For example, HDP-CDV-201 is a placebo-controlled, dose-escalating trial in HSCT CMV (R+) recipients, evaluating the ability of HDP-CDV to prevent or control CMV infection was carried out. Five cohorts were established in which participants or subjects received either placebo or the HDP-CDV orally, in doses ranging from 40 mg weekly (QW) to 200 mg twice weekly (BIW). Subjects who were post-HSCT were enrolled at the time of engraftment and randomized to HDP-CDV or placebo (3 to 1 ratio) and received blinded therapy until approximately 100 day post-transplantation. HDP-CDV doses were 40 mg QW, 100 mg QW, 200 mg QW, 200 mg BIW and 100 mg BIW. Escalation to the next dose was decided by the data monitoring committee after review of the safety data from the previous Cohort. Subjects who developed CMV disease or CMV infection requiring pre-emptive therapy with local standard of care were discontinued from blinded therapy and followed for 4 weeks. Subjects who completed treatment with blinded therapy were followed for 8 weeks post-therapy.
Data from Study HDP-CDV-201 also provided characterization of the safety and tolerability profile of HDP-CDV when administered for the prevention or control of CMV infection in high risk (R^+) post-HSCT adult subjects.
The Safety population (SAFETY) included all randomized subjects who took at least one dose of study treatment. This population was used to summarize safety outcomes based on the treatment actually received, in cases where a subject was treated contrary to the randomization schedule.
The safety and tolerability profile of HDP-CDV, including subject demographics and Baseline characteristics; the AE profile; and laboratory abnormalities of interest were analyzed in the cohorts followed in this investigation.
Subjects completing the treatment period received a full course of study medication; those completing the entire study attended visits through 8 weeks of follow up. Subjects who discontinued treatment may have done so for protocol specified reasons (e.g. development of clinically significant CMV infection requiring preemptive treatment with excluded anti-CMV medications) or for other reasons (e.g., withdrawal, adverse events, loss to follow-up). The disposition of subjects in Study HDP-CDV-201 during the double-blind, placebo-controlled treatment period (through Week 11) is listed by dosing Cohort in TABLE 23.
Adverse events were examined by severity to ensure that all safety signals were identified in this study population. Because of the frequency of events in HSCT recipients, particular attention was given to evaluation of Grade 3 […], 4 (severe), and 5 (fatal) adverse events.
Only those preferred terms for which at least one Grade 3 or higher event was experienced in any treatment group are listed. Cytomegalovirus-related AEs are excluded from this analysis.
HDP-CDV is a lipid conjugate of CDV. Because CDV is known to have adverse effects on renal function and bone marrow, decreased GFR and persistent neutropenia were identified as AEs of special interest. Key renal and hematological (TABLE 30) laboratory parameters were measured and listed below by Study HDP-CDV-201 treatment groups. TABLE 30 includes abnormal levels of serum creatinine, neutrophils, platelets, WBCs, and hemoglobin and includes data at Screening and during the treatment period.
A common metric for unit based dosing of medications is by weight (mg/kg). When the distribution of weights was examined for all subjects participating in the study, the median was 78 kg and the lower 25th percentile weight was approximately 65 kg, which translates to a cut-off of ˜3 mg/kg for a 200 mg total weekly dose. Based upon this approach, a cut-off of 3 mg/kg was used to assess the frequency of diarrhea and associated GI AEs reported for the subjects in Cohorts 3 or 4a (TABLE 40).

[1] = Cohort 2, 100 mg QW, through Week 11

CCCCCCCCCCCCCCCCOCCCOP(=O)(O)COC(CO)Cn1ccc(N)nc1=O (stereo not drawn) [HDP-CDV]
Alkaline Phosphatase (Screening) >2.5-5.0 × ULN, subjects (Cohort 2, 100 mg QW): 0
Alkaline Phosphatase (Screening) >5.0-20.0 × ULN, subjects (Cohort 2, 100 mg QW): 0
Alkaline Phosphatase (Screening) >20.0 × ULN, subjects (Cohort 2, 100 mg QW): 0
Alkaline Phosphatase (Screening) >ULN-[…] ULN, subjects (Cohort 2, 100 mg QW): 6 (22.2%)
Alkaline Phosphatase (any time during therapy) >2.5-5.0 × ULN, subjects (Cohort 2, 100 mg QW): 1 (3.7%)
Alkaline Phosphatase (any time during therapy) >5.0-20.0 × ULN, subjects (Cohort 2, 100 mg QW): 1 (3.7%)
Alkaline Phosphatase (any time during therapy) >20.0 × ULN, subjects (Cohort 2, 100 mg QW): 0
Alkaline Phosphatase (any time during therapy) >ULN-[…] ULN, subjects (Cohort 2, 100 mg QW): 7 (25.9%)
GI AE Leading to Study Drug Discontinuation: Abdominal pain, subjects (Cohort 2, 100 mg QW): 0
GI AE Leading to Study Drug Discontinuation: Diarrhoea, subjects (Cohort 2, 100 mg QW): 0
GI AE Leading to Study Drug Discontinuation: Dyspepsia, subjects (Cohort 2, 100 mg QW): 0
GI AE Leading to Study Drug Discontinuation: Nausea, subjects (Cohort 2, 100 mg QW): 0
GI AE Leading to Study Drug Discontinuation: Vomiting, subjects (Cohort 2, 100 mg QW): 1 (3.7%)
GI AEs Leading to Study Drug Discontinuation: Total subjects discontinued (Cohort 2, 100 mg QW): 1 (3.7%)
Gastrointestinal AE Abdominal discomfort, subjects (Cohort 2, 100 mg QW): 1 (3.7%)
Gastrointestinal AE Abdominal distention, subjects (Cohort 2, 100 mg QW): 2 (7.4%)
Gastrointestinal AE Abdominal pain upper, subjects (Cohort 2, 100 mg QW): 2 (7.4%)
Gastrointestinal AE Abdominal pain, subjects (Cohort 2, 100 mg QW): 2 (7.4%)
Gastrointestinal AE Constipation, subjects (Cohort 2, 100 mg QW): 0
Gastrointestinal AE Diarrhoea, subjects (Cohort 2, 100 mg QW): 8 (29.6%)
Gastrointestinal AE Diverticulum intestinal haemorragic, subjects (Cohort 2, 100 mg QW): 0
Gastrointestinal AE Dyspepsia, subjects (Cohort 2, 100 mg QW): 2 (7.4%)
Gastrointestinal AE Dysphagia, subjects (Cohort 2, 100 mg QW): 1 (3.7%)
Gastrointestinal AE Epigastric discomfort, subjects (Cohort 2, 100 mg QW): 1 (3.7%)
Gastrointestinal AE Flatulence, subjects (Cohort 2, 100 mg QW): 1 (3.7%)
Gastrointestinal AE GERD, subjects (Cohort 2, 100 mg QW): 4 (14.8%)
Gastrointestinal AE Gastritis, subjects (Cohort 2, 100 mg QW): 1 (3.7%)
Gastrointestinal AE Haematochezia, subjects (Cohort 2, 100 mg QW): 0
Gastrointestinal AE Haemorroids, subjects (Cohort 2, 100 mg QW): 0
Gastrointestinal AE Large intestinal ulcer, subjects (Cohort 2, 100 mg QW): 0
Gastrointestinal AE Nausea, subjects (Cohort 2, 100 mg QW): 5 (18.5%)
Gastrointestinal AE Odynophagia, subjects (Cohort 2, 100 mg QW): 0
Gastrointestinal AE Oesophagitis, subjects (Cohort 2, 100 mg QW): 0
Gastrointestinal AE Retching, subjects (Cohort 2, 100 mg QW): 1 (3.7%)
Gastrointestinal AE Vomiting, subjects (Cohort 2, 100 mg QW): 6 (22.2%)
Hepatobiliary clinical AE Cholelithiasis, subjects (Cohort 2, 100 mg QW): 0
Hepatobiliary clinical AE Hepatomegaly, subjects (Cohort 2, 100 mg QW): 0
Hepatobiliary clinical AE Hyperbilirubinaemia, subjects (Cohort 2, 100 mg QW): 0
Hepatobiliary clinical AE Jaundice, subjects (Cohort 2, 100 mg QW): 0
Hepatobiliary clinical AE Liver injury, subjects (Cohort 2, 100 mg QW): 0
Intensity of Gastrointestinal AEs, Grade 1, subjects (Cohort 2, 100 mg QW): 6 (22.2%)
Intensity of Gastrointestinal AEs, Grade 2, subjects (Cohort 2, 100 mg QW): 10 (37.0%)
Intensity of Gastrointestinal AEs, Grade 3, subjects (Cohort 2, 100 mg QW): 1 (3.7%)
Intensity of Gastrointestinal AEs, Grade 4, subjects (Cohort 2, 100 mg QW): 0
Intensity of Gastrointestinal AEs, Grade 5, subjects (Cohort 2, 100 mg QW): 0
Proportion of Subjects with Stage 3 or 4 Gut GVHD (Cohort 2, 100 mg QW): 0%
Serum ALT level, Median fold increase from Baseline at Follow-up Week 1 (Cohort 2, 100 mg QW): 1.50 fold
Serum ALT level, Median fold increase from Baseline at Follow-up Week 4 (Cohort 2, 100 mg QW): 0.96 fold
Serum ALT level, Peak Median fold increase from Baseline (Cohort 2, 100 mg QW): 1.53 fold
Subjects completed study (Cohort 2, 100 mg QW): 14 (51.9%) n (%)
Total Bilirubin (Screening) >1-[…] ULN, subjects (Cohort 2, 100 mg QW): 1 (3.8%)
Total Bilirubin (Screening) >1.5-3 × ULN, subjects (Cohort 2, 100 mg QW): 1 (3.8%)
Total Bilirubin (Screening) >3-10 × ULN, subjects (Cohort 2, 100 mg QW): 0
Total Bilirubin (Screening) >10 × ULN, subjects (Cohort 2, 100 mg QW): 0
Total Bilirubin (any time during therapy) >1-[…] ULN, subjects (Cohort 2, 100 mg QW): 0
Total Bilirubin (any time during therapy) >1.5-3 × ULN, subjects (Cohort 2, 100 mg QW): 1 (3.7%)
Total Bilirubin (any time during therapy) >3-10 × ULN, subjects (Cohort 2, 100 mg QW): 0
Total Bilirubin (any time during therapy) >10 × ULN, subjects (Cohort 2, 100 mg QW): 0
Abdominal pain leading to study drug withdrawal (Cohort 2, 100 mg QW, N = 27): 0%
All AEs leading to withdrawal (Cohort 2, 100 mg QW, N = 27): 9 (33.3%)
Diarrhoea leading to study drug withdrawal (Cohort 2, 100 mg QW, N = 27): 0%
Dyspepsia leading to study drug withdrawal (Cohort 2, 100 mg QW, N = 27): 0%
Nausea leading to study drug withdrawal (Cohort 2, 100 mg QW, N = 27): 0%
TEAE ALT increased (Cohort 2, 100 mg QW, N = 27): 1 (3.7%) n (%)
TEAE AST increased (Cohort 2, 100 mg QW, N = 27): 1 (3.7%) n (%)
TEAE Abdominal pain (Cohort 2, 100 mg QW, N = 27): 2 (7.4%) n (%)
TEAE Abdominal pain, Upper (Cohort 2, 100 mg QW, N = 27): 2 (7.4%) n (%)
TEAE Acute GVHD (Cohort 2, 100 mg QW, N = 27): 7 (25.5%) n (%)
TEAE Acute Myeloid Leukemia recurrent (Cohort 2, 100 mg QW, N = 27): 0 n (%)
TEAE Acute Renal Failure (Cohort 2, 100 mg QW, N = 27): 0 n (%)
TEAE Anxiety (Cohort 2, 100 mg QW, N = 27): 3 (11.1%) n (%)
TEAE Arthralgias (Cohort 2, 100 mg QW, N = 27): 3 (11.1%) n (%)
TEAE Back Pain (Cohort 2, 100 mg QW, N = 27): 2 (7.4%) n (%)
TEAE Blood lactate dehydrogenase increased (Cohort 2, 100 mg QW, N = 27): 1 (3.7%) n (%)
TEAE Creatinine increased (Cohort 2, 100 mg QW, N = 27): 5 (18.5%) n (%)
TEAE Cytomegalovirus viremia (Cohort 2, 100 mg QW, N = 27): 4 (14.8%) n (%)
TEAE Decreased appetite (Cohort 2, 100 mg QW, N = 27): 5 (18.5%) n (%)
TEAE Diarrhoea (Cohort 2, 100 mg QW, N = 27): 8 (29.6%) n (%)
TEAE Dysgeusia (Cohort 2, 100 mg QW, N = 27): 1 (3.7%) n (%)
TEAE Fatigue (Cohort 2, 100 mg QW, N = 27): 3 (11.1%) n (%)
TEAE GI Reflux Disease (Cohort 2, 100 mg QW, N = 27): 4 (14.8%) n (%)
TEAE Gamma-glutamyltransferase increased (Cohort 2, 100 mg QW, N = 27): 1 (3.7%) n (%)
TEAE Generalized oedema (Cohort 2, 100 mg QW, N = 27): 0 n (%)
TEAE Hyperbilirubinaemia (Cohort 2, 100 mg QW, N = 27): 0 n (%)
TEAE Hyperglycaemia (Cohort 2, 100 mg QW, N = 27): 1 (3.7%) n (%)
TEAE Hyperkalemia (Cohort 2, 100 mg QW, N = 27): 1 (3.7%) n (%)
TEAE Hypocalcaemia (Cohort 2, 100 mg QW, N = 27): 0 n (%)
TEAE Hypokalaemia (Cohort 2, 100 mg QW, N = 27): 2 (7.4%) n (%)
TEAE Hyponatraemia (Cohort 2, 100 mg QW, N = 27): 1 (3.7%) n (%)
TEAE Increased leukocytosis (Cohort 2, 100 mg QW, N = 27): 0 n (%)
TEAE Insomnia (Cohort 2, 100 mg QW, N = 27): 2 (7.4%) n (%)
TEAE Liver function test abnormal (Cohort 2, 100 mg QW, N = 27): 1 (3.7%) n (%)
TEAE Malnutrition (Cohort 2, 100 mg QW, N = 27): 0 n (%)
TEAE Nausea (Cohort 2, 100 mg QW, N = 27): 5 (18.5%) n (%)
TEAE Neutropenia (Cohort 2, 100 mg QW, N = 27): 4 (14.8%) n (%)
TEAE Oedema peripheral (Cohort 2, 100 mg QW, N = 27): 5 (18.5%) n (%)
TEAE Oral Candidiasis (Cohort 2, 100 mg QW, N = 27): 0 n (%)
TEAE Pneumonia (Cohort 2, 100 mg QW, N = 27): 2 (7.4%) n (%)
TEAE Pyrexia (Cohort 2, 100 mg QW, N = 27): 1 (3.7%) n (%)
TEAE Recurrent flatulence (Cohort 2, 100 mg QW, N = 27): 1 (3.7%) n (%)
TEAE Renal Failure (Cohort 2, 100 mg QW, N = 27): 2 (7.4%) n (%)
TEAE Staphylococcal Bacteremia (Cohort 2, 100 mg QW, N = 27): 1 (3.7%) n (%)
TEAE Thrombocytopenia (Cohort 2, 100 mg QW, N = 27): 3 (11.1%) n (%)
TEAE Tremor (Cohort 2, 100 mg QW, N = 27): 3 (11.1%) n (%)
TEAE Vomiting (Cohort 2, 100 mg QW, N = 27): 6 (22.2%) n (%)
Vomiting leading to study drug withdrawal (Cohort 2, 100 mg QW, N = 27): 1 (3.7%)
All AEs, Grade 5 (deaths) (Cohort 2, 100 mg QW, N = 27, entire study duration): 0%
Proportion of Subjects with Grade 3 Diarrhea (Cohort 2, 100 mg QW, no Grade 4 or 5 diarrhea in any Cohort): 0%
Subjects completed treatment [1]: 18 (66.7%) n (%)
Subjects who permanently discontinued treatment [1]: 9 (33.3%) n (%)
Grade of hepatobiliary AE acute liver injury, subject 3007 (Cohort 3): 3
